Assay [1] concerns Mycobacterium tuberculosis. The experiment in a line: Ratio of MIC for Mycobacterium bovis BCG overexpressing InhA to MIC for Mycobacterium bovis BCG. The class given is functional, variant bovis BCG.
Assay [2] has as its system Mycobacterium tuberculosis. The experiment in a line: Antimycobacterial activity against Mycobacterium bovis BCG overexpressing InhA after 2 weeks. The conditions noted are these: variant bovis BCG, 336 h. The assay is classed as functional.
Assay [3] relates to Mycobacterium tuberculosis. In words: Antimycobacterial activity against Mycobacterium bovis BCG after 2 weeks. The class given is functional. The conditions noted are these: variant bovis BCG, 336 h.

Converted amounts (≈) assume the structure as drawn.

For orientation: MIC means the least concentration at which growth counts as inhibited. A lower MIC goes with a more susceptible organism. On to `Cc1cc(C)n(Cc2ccc(C(=O)NCC3(c4nc(-c5ccccc5)cs4)CCOCC3)cc2)n1`, for which the Ratio in assay [1] was 4. Moreover, the values for the MIC in assay [2] and in assay [3] were 31.3 µg/mL (≈ 64.3 µM) and 7.8 µg/mL (≈ 16 µM), respectively.
The corresponding values for `NNC(=O)c1ccncc1` [ISONIAZID] are above 21, above 16 µg/mL and 0.75 µg/mL (≈ 5.47 µM).
The corresponding values for `NC[C@H]1O[C@H](O[C@H]2[C@H](O)[C@@H](O[C@H]3O[C@H](CO)[C@@H](O)[C@H](N)[C@H]3O)[C@H](N)C[C@@H]2N)[C@H](O)[C@@H](O)[C@@H]1O` [KANAMYCIN] are 1, 0.6 µg/mL (≈ 1.24 µM) and 0.6 µg/mL (≈ 1.24 µM).

The record behind these values is ChEMBL document CHEMBL3779781, “New direct inhibitors of InhA with antimycobacterial activity based on a tetrahydropyran scaffold” (Eur J Med Chem, 2016).
